# From US7759345B2, “Antitumoral derivatives of ET-743” (priority 2001, dated 2010)
# Legend:
# K-562 = assay: Inhibition of cells growth by colorimetric assay (SRB), K-562; assay type: cell-based; settings: for GI50 / LC50 (50% cell killing): Homo sapiens, K562, 48 h; for GI50 / K-562 TGI: SRB assay, 48 hours exposure; for GI50: read-out: K-562 GI50; for LC50 (50% cell killing): read-out: K-562 LC50, SRB assay, 48 hours exposure
# In short: (§1)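 Cells in RPMI 1640 with 10% FBS were seeded at 5×10^3 per well, allowed 18 h to attach, then exposed to compound (10 to 10^−8 μg/ml, in DMSO/EtOH/PBS 0.5:0.5:99) for 48 h. After TCA fixation and SRB staining, bound dye was solubilized in Tris and OD read at 490 nm; GI, TGI and LC derived from triplicates.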
# A-549 = assay: Inhibition of cells growth by colorimetric assay (SRB), A-549; assay type: cell-based; settings: for GI50 / LC50 (concentration for 50% cell killing): Homo sapiens, A549, 48 h; for GI50 / A-549 TGI: SRB assay, 48 hours exposure; for GI50: read-out: A-549 GI50; for LC50 (concentration for 50% cell killing): read-out: A-549 LC50, SRB assay, 48 hours exposure
# In short: as §1
# SK-MEL-28 = assay: Inhibition of cells growth by colorimetric assay (SRB), SK-MEL-28; assay type: cell-based; settings: for GI50 / CC50: Homo sapiens, SK-MEL-28, 48 h; for GI50 / MEL-28 TGI: SRB assay, 48 hours exposure; for GI50: read-out: MEL-28 GI50; for CC50: read-out: MEL-28 LC50, SRB assay, 48 hours exposure
# In short: as §1
# HT-29 = assay: Inhibition of cells growth by colorimetric assay (SRB), HT-29; assay type: cell-based; settings: for GI50 / LC50 (concentration for 50% cell killing): Homo sapiens, HT-29, 48 h; for GI50 / HT-29 TGI: SRB assay, 48 hours exposure; for GI50: read-out: HT-29 GI50; for LC50 (concentration for 50% cell killing): read-out: HT-29 LC50, SRB assay, 48 hours exposure
# In short: as §1
# LoVo = assay: Inhibition of cells growth by colorimetric assay (SRB), LoVo; assay type: cell-based; settings: for GI50 / LC50 (concentration for 50% cell killing): Homo sapiens, LoVo, 48 h; for GI50 / LOVO TGI: SRB assay, 48 hours exposure; for GI50: read-out: LOVO GI50; for LC50 (concentration for 50% cell killing): read-out: LOVO LC50, SRB assay, 48 hours exposure
# In short: as §1
# LoVo-Dox = assay: Inhibition of cells growth by colorimetric assay (SRB), LoVo-Dox; assay type: cell-based; settings: for GI50 / CC50: Homo sapiens, 48 h; for GI50 / LOVO-DOX TGI: SRB assay, 48 hours exposure; for GI50: read-out: LOVO-DOX GI50; for CC50: read-out: LOVO-DOX LC50, SRB assay, 48 hours exposure
# In short: as §1
# DU-145 = assay: Inhibition of cells growth by colorimetric assay (SRB), DU-145; assay type: cell-based; settings: for GI50 / CC50: Homo sapiens, DU-145, 48 h; for GI50 / DU-145 TGI: SRB assay, 48 hours exposure; for GI50: read-out: DU-145 GI50; for CC50: read-out: DU-145 LC50, SRB assay, 48 hours exposure
# In short: as §1
# LNCaP = assay: Inhibition of cells growth by colorimetric assay (SRB), LNCaP; assay type: cell-based; settings: for GI50 / CC50: Homo sapiens, LNCaP, 48 h; for GI50: read-out: LNCAP GI50, SRB assay, 48 hours exposure; for CC50: read-out: LNCAP LC50, SRB assay, 48 hours exposure; for LNCAP TGI: SRB assay, 48 hours exposure
# In short: as §1
# SK-BR-3 = assay: Inhibition of cells growth by colorimetric assay (SRB), SK-BR-3; assay type: cell-based; settings: for GI50 / CC50: Homo sapiens, SK-BR-3, 48 h; for GI50 / SK-BR3 TGI: SRB assay, 48 hours exposure; for GI50: read-out: SK-BR3 GI50; for CC50: read-out: SK-BR3 LC50, SRB assay, 48 hours exposure
# In short: as §1
# IGROV-1 = assay: Inhibition of cells growth by colorimetric assay (SRB), IGROV-1; assay type: cell-based; settings: for GI50 / CC50: Homo sapiens, IGROV-1, 48 h; for GI50 / IGROV TGI: SRB assay, 48 hours exposure; for GI50: read-out: IGROV GI50; for CC50: read-out: IGROV LC50, SRB assay, 48 hours exposure
# In short: as §1
# IGROV-ET = assay: Inhibition of cells growth by colorimetric assay (SRB), IGROV-ET; assay type: cell-based; settings: for GI50 / CC50: Homo sapiens, 48 h; for GI50 / IGROV-ET TGI: SRB assay, 48 hours exposure; for GI50: read-out: IGROV-ET GI50; for CC50: read-out: IGROV-ET LC50, SRB assay, 48 hours exposure
# In short: as §1
# SK-OV-3 = assay: Inhibition of cells growth by colorimetric assay (SRB), SK-OV-3; assay type: cell-based; settings: for GI50 / LC50: Homo sapiens, SK-OV-3, 48 h; for GI50 / SK-OV3 TGI: SRB assay, 48 hours exposure; for GI50: read-out: SK-OV3 GI50; for LC50: read-out: SK-OV3 LC50, SRB assay, 48 hours exposure
# In short: as §1
# PANC-1 = assay: Inhibition of cells growth by colorimetric assay (SRB), PANC-1; assay type: cell-based; settings: for GI50 / LC50 (concentration for 50% net cell kill): Homo sapiens, PANC-1, 48 h; for GI50 / PANC-1 TGI: SRB assay, 48 hours exposure; for GI50: read-out: PANC-1 GI50; for LC50 (concentration for 50% net cell kill): read-out: PANC-1 LC50, SRB assay, 48 hours exposure
# In short: as §1
# HMEC1 = assay: Inhibition of cells growth by colorimetric assay (SRB), HMEC1; assay type: cell-based; settings: for GI50 / LC50: Homo sapiens, HMEC-1, 48 h; for GI50 / HMEC-1 TGI: SRB assay, 48 hours exposure; for GI50: read-out: HMEC-1 GI50; for LC50: read-out: HMEC-1 LC50, SRB assay, 48 hours exposure
# In short: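 Human cancer and endothelial lines are seeded at 5×10^3 cells per well and, after 18 h, treated for 48 h with compound dissolved in DMSO/EtOH/PBS (0.5:0.5:99) at 10 to 10^−8 μg/ml. Cell mass is quantified by SRB staining (OD 490 nm), and growth inhibition, total growth inhibition and cell kill are calculated from triplicate wells.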
# Source text for Heart: (§2) Toxicity was asssessed by the methods reported in Toxicology in Vitro, 15 (2001) 571-577, J. Luber Narod et al.: “Evaluation of the use of in vitro methodolodies as tools for screening new compounds for potential in vivo toxicity”.
# Source text for Kidney: as §2
# Source text for Liver: as §2
# Source text for Myelo: as §2
# Source text for Skeletal: as §2
structure (smiles),measurement,setting,value
COc1cc2c(cc1O)CCN[C@]21CS[C@@H]2c3c(OC(=O)CCCCC4SCC5NC(=O)NC54)c(C)c4c(c3[C@H](COC1=O)N1C2[C@H]2c3c(cc(C)c(OC)c3O)C[C@@H]([C@@H]1O)N2C)OCO4 (stereo partly shown) [Compound 171],GI50,K-562,0.243 nM
same,LC50 (50% cell killing),K-562,0.982 nM
same,K-562 TGI,K-562,4.88E-10
same,GI50,A-549,22.8 nM
same,LC50 (concentration for 50% cell killing),A-549,96 nM
same,A-549 TGI,A-549,4.68E-08
same,GI50,SK-MEL-28,5.65 nM
same,CC50,SK-MEL-28,102 nM
same,MEL-28 TGI,SK-MEL-28,2.33E-08
same,GI50,HT-29,3.91 nM
same,LC50 (concentration for 50% cell killing),HT-29,10600 nM
same,HT-29 TGI,HT-29,3.24E-08
same,GI50,LoVo,23.7 nM
same,LC50 (concentration for 50% cell killing),LoVo,10600 nM
same,LOVO TGI,LoVo,7.66E-08
same,GI50,LoVo-Dox,938 nM
same,CC50,LoVo-Dox,10600 nM
same,LOVO-DOX TGI,LoVo-Dox,1.23E-06
same,GI50,DU-145,5.05 nM
same,CC50,DU-145,10600 nM
same,DU-145 TGI,DU-145,2.96E-08
same,GI50,LNCaP,1.66 nM
same,CC50,LNCaP,5.94 nM
same,LNCAP TGI,LNCaP,3.14E-09
same,GI50,SK-BR-3,2.47 nM
same,CC50,SK-BR-3,37.5 nM
same,SK-BR3 TGI,SK-BR-3,6.54E-09
same,GI50,IGROV-1,1.93 nM
same,CC50,IGROV-1,8.8 nM
same,IGROV TGI,IGROV-1,4.12E-09
same,GI50,IGROV-ET,225 nM
same,CC50,IGROV-ET,10600 nM
same,IGROV-ET TGI,IGROV-ET,7.08E-07
same,GI50,SK-OV-3,6.89 nM
same,LC50,SK-OV-3,10600 nM
same,SK-OV3 TGI,SK-OV-3,9.73E-08
same,GI50,PANC-1,7.3 nM
same,LC50 (concentration for 50% net cell kill),PANC-1,1060 nM
same,PANC-1 TGI,PANC-1,4.63E-08
same,GI50,HMEC1,2.94 nM
same,LC50,HMEC1,10600 nM
same,HMEC-1 TGI,HMEC1,6.90E-09
same,Toxicity Data Liver,Liver,8.37E-08
same,Toxicity Data Heart,Heart,3.13E-08
same,Toxicity Data Myelo,Myelo,1.37E-07
same,Toxicity Data Skeletal,Skeletal,3.58E-08
same,Toxicity Data Kidney,Kidney,2.70E-08
COc1cc2c(cc1O)CCN[C@]21CS[C@@H]2c3c(OC(=O)CCCCC4SCC5NC(=O)NC54)c(C)c4c(c3[C@H](COC1=O)N1C2[C@H]2c3c(cc(C)c(OC)c3OC(=O)CCCCC3SCC5NC(=O)NC53)C[C@@H]([C@@H]1O)N2C)OCO4 (stereo partly shown) [Compound 172],GI50,K-562,6.03 nM
same,LC50 (50% cell killing),K-562,35.3 nM
same,K-562 TGI,K-562,9.98E-09
same,GI50,A-549,241 nM
same,LC50 (concentration for 50% cell killing),A-549,853 nM
same,A-549 TGI,A-549,4.59E-07
same,GI50,SK-MEL-28,1.31 nM
same,CC50,SK-MEL-28,7.97 nM
same,MEL-28 TGI,SK-MEL-28,3.22E-09
same,GI50,HT-29,38.8 nM
same,LC50 (concentration for 50% cell killing),HT-29,8530 nM
same,HT-29 TGI,HT-29,1.43E-07
same,GI50,LoVo,226 nM
same,LC50 (concentration for 50% cell killing),LoVo,853 nM
same,LOVO TGI,LoVo,4.61E-07
same,GI50,LoVo-Dox,2880 nM
same,CC50,LoVo-Dox,8530 nM
same,LOVO-DOX TGI,LoVo-Dox,7.23E-06
same,GI50,DU-145,37.9 nM
same,CC50,DU-145,8530 nM
same,DU-145 TGI,DU-145,8.31E-08
same,GI50,LNCaP,27.7 nM
same,CC50,LNCaP,66.8 nM
same,LNCAP TGI,LNCaP,4.31E-08
same,GI50,SK-BR-3,50.2 nM
same,CC50,SK-BR-3,785 nM
same,SK-BR3 TGI,SK-BR-3,2.00E-07
same,GI50,IGROV-1,14.2 nM
same,CC50,IGROV-1,63.6 nM
same,IGROV TGI,IGROV-1,3.01E-08
same,GI50,IGROV-ET,165 nM
same,CC50,IGROV-ET,853 nM
same,IGROV-ET TGI,IGROV-ET,4.18E-07
same,GI50,SK-OV-3,219 nM
same,LC50,SK-OV-3,853 nM
same,SK-OV3 TGI,SK-OV-3,5.09E-07
same,GI50,PANC-1,326 nM
same,LC50 (concentration for 50% net cell kill),PANC-1,8530 nM
same,PANC-1 TGI,PANC-1,8.34E-07
same,GI50,HMEC1,432 nM
same,LC50,HMEC1,8530 nM
same,HMEC-1 TGI,HMEC1,8.53E-06
same,Toxicity Data Liver,Liver,2.47E-07
same,Toxicity Data Heart,Heart,7.52E-07
same,Toxicity Data Myelo,Myelo,3.81E-07
same,Toxicity Data Skeletal,Skeletal,8.53E-07
same,Toxicity Data Kidney,Kidney,7.93E-07
